{
  "source": "patent US20160355465A1",
  "about": "“NOVEL MODIFIED CURCUMINS AND THEIR USES” (THE RESEARCH FOUNDATION OF STATE UNIVERSITY OF NEW YORK, priority 2011, published 2016)",
  "key": {"peritoneal macrophages": {"test_system": "peritoneal macrophages", "test": "macrophage accumulation in peritoneal exudates of diabetic rats", "format": "in vivo, rat", "details": "oral 30 mg/kg daily, 21 days", "description": "(§1) Adult male Sprague-Dawley rats (body weight 300-350 g) were injected through the tail vein with either 0.9% saline (non-diabetic control) or with the same solution containing streptozotocin (70 mg/kg body weight) to induce diabetes. Non-diabetic rats served as normal controls. The diabetic rats were distributed into 2 experimental groups (3 rats per group). Urine glucose levels were measured weekly with Tes-Tape (Eli Lilly Inc.). One group of rats was treated by oral gavage of Compound 4 (30 mg/kg body weight) daily for 21 days; the Compound 4 was suspended in 2% carboxymethyl cellulose and polytron/homogenized. The normal & diabetic vehicle-treated (control) groups were oral gavaged with vehicle alone daily.\n(§2) Rat peritoneal macrophages were harvested with 10 ml RPMI 4 days after intraperitoneal injection of 10 ml of thioglycolate (3% wt/vol). Macrophages were then purified by density gradient centrifugation (lymphoprep) and cell numbers were counted in a hemocytometer. The cells were then tested in a cell migration assay (Cell BioLabs, Inc, CytoSelect 96-well with 5 um fluorometric format) using conditioned medium containing inflammatory mediators including MCP-1 from LPS-macrophages as a chemoattractant. The macrophages from different groups of rats were also plated onto 24 well-plates with and without p.g.LPS challenge for 24 hours in 37° C., 5% CO2. […]"}, "MMP-7": {"molecular_target": "T1, MMP-7 (Homo sapiens, UniProt P09237)", "T1 sequence (P09237 95-267)": "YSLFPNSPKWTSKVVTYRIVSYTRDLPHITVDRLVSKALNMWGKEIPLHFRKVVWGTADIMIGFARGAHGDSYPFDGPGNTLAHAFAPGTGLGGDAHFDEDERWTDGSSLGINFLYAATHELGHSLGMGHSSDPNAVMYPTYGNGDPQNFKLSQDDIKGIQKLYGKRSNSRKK", "test": "fluorimetric assay of MMP activity", "format": "biochemical", "details": "synthetic fluorescent peptide substrate Mca-Lys-Pro-Leu-Gly-Leu-Dpa-Ala-Arg-NH2"}, "[1]": {"test_system": "MMP-9 (92 kDa gelatinase)", "test": "gelatin zymography of skin wound extracts", "format": "in vivo, rat", "details": "diabetic rats, all three treatments (1%, 3% topical, oral 30 mg/kg), day 7", "description": "(§3) The following five experimental groups (n=3 rats per group) were established: Non-diabetic control rats (NDC) treated by daily application of white petrolatum jelly (“vehicle”) for 7 days, diabetic rats (D group) treated daily with vehicle alone; diabetics treated by daily topical application of either a 1% (D+1%) or a 3% (D+3%) suspension of Compound 4 in the vehicle; and diabetics treated systemically by daily oral intubation of a 1 ml suspension of Compound 4 (in carboxymethylcellulose) at a dose of 30 mg/kg over the 7-day treatment protocol (D+30 mg/kg). At the end of this time period, the circular wounds were clinically assessed by measuring diameter of the wound in millimeters, blood samples were collected, the rats were sacrificed, and skin samples collected for histological/histochemical, and biochemical assessment as described below. • 1) On day 7 after inducing wound healing, the animals were anesthetized and blood samples collected for blood glucose (one Touch Ultra Glucometer; Johnson & Johnson, New Brunswick, N.J.) and Hemoglobin A1c (A1c Now+; Bayer Health Care, Sunnyvale, Calif.) measurements. • 2) Photographs were taken for clinical observations to assess wound closure. […]"}, "[2]": {"test_system": "MMP-2 (72 kDa gelatinase)", "test": "gelatin zymography of skin wound extracts", "format": "in vivo, rat", "details": "diabetic rats, 1% topical, day 7", "description": "as §3"}, "MMP-13": {"molecular_target": "MMP-13 (Homo sapiens, UniProt P45452)", "test": "fluorimetric assay of MMP activity", "format": "biochemical", "details": "synthetic fluorescent peptide substrate Mca-Lys-Pro-Leu-Gly-Leu-Dpa-Ala-Arg-NH2"}, "collagen in wound tissue": {"test_system": "collagen in wound tissue", "test": "collagen fractions (hydroxyproline) in wound tissue of diabetic rats", "format": "in vivo, rat", "details": "wound tissue day 6", "excerpt": "Biochemical measurements were made on wound tissue 6 days after creating the standardized 6 mm diameter wounds in the various groups of rats including: (1) non-diabetic controls (NDC); (2) Diabetic (DM) rats treated topically with 0.25% curcumin; (3) DM treated with 1% curcumin; (4) DM treated with 0.25% Compound 4, and (5) DM rats treated with 1% Compound 4. The wound tissues from these five different groups were then hydrolyzed (after extraction; see below) to degrade the collagen to individual amino acids, and the amino acid unique to collagen, hydroxyproline, was measured by a commercial colorimetric assay. Prior to hydrolysis, the wound tissues were extracted (at 4° C. to maintain the triple-helical conformation of the collagen molecules) to obtain first the salt-soluble fraction, then the acid-soluble fraction, leaving the insoluble fraction."}, "MMP-8": {"molecular_target": "MMP-8 (Homo sapiens, UniProt P22894)", "sequence (P22894 101-467)": "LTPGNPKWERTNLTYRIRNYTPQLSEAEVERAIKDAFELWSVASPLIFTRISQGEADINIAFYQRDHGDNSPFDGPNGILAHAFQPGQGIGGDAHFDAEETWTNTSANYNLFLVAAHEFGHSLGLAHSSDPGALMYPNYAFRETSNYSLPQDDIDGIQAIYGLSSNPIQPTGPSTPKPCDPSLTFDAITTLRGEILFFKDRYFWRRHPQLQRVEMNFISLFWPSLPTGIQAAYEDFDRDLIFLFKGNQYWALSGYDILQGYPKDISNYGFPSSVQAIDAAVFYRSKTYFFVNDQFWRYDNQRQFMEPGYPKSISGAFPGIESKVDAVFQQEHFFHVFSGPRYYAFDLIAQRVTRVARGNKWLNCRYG", "test": "fluorimetric assay of MMP activity", "format": "biochemical", "details": "synthetic fluorescent peptide substrate Mca-Lys-Pro-Leu-Gly-Leu-Dpa-Ala-Arg-NH2"}, "IL-1β": {"test_system": "IL-1β", "test": "cytokine production by peritoneal macrophages of orally treated diabetic rats in culture", "format": "in vivo, rat", "details": "oral 30 mg/kg daily, 21 days, culture with or without P. gingivalis LPS", "description": "as §1, §2"}, "IL-6": {"test_system": "IL-6", "test": "cytokine production by peritoneal macrophages of orally treated diabetic rats in culture", "format": "in vivo, rat", "details": "oral 30 mg/kg daily, 21 days, culture with or without P. gingivalis LPS", "description": "as §1, §2"}},
  "data": [
    {"smiles": "O=C(/C=C/c1ccc(O)cc1)C(C(=O)/C=C/c1ccc(O)cc1)C(=O)Nc1ccccc1", "note": "[Compound 4, 1,7-Bis(4-hydroxyphenyl)-4-N-phenylaminocarbonylhepta-1E, 6E-dien-3,5-dione]", "values": [
      {"measurement": "macrophage accumulation in peritoneal exudates", "setting": "peritoneal macrophages", "value": "decreased pathologically excessive macrophage accumulation"},
      {"measurement": "IC50", "setting": "MMP-7", "value": "5 ± 0.7", "unit": "µM"},
      {"measurement": "level of pro-MMP-9 and activated MMP-9 in skin wounds", "setting": "[1]", "value": "attenuated this diabetic effect"},
      {"measurement": "MMP-2 in skin wounds", "setting": "[2]", "value": "does not suppress, and perhaps even enhances"},
      {"measurement": "IC50", "setting": "MMP-13", "value": "2700 ± 700", "unit": "nM"},
      {"measurement": "Collagen Fractions (%) Acid-soluble", "setting": "collagen in wound tissue; 0.25% topical", "value": 41.7, "unit": "%"},
      {"measurement": "Collagen Fractions (%) Insoluble", "setting": "collagen in wound tissue; 0.25% topical", "value": 31.7, "unit": "%"},
      {"measurement": "Collagen Fractions (%) Salt-soluble", "setting": "collagen in wound tissue; 0.25% topical", "value": 26.6, "unit": "%"},
      {"measurement": "Collagen Fractions (%) Acid-soluble", "setting": "collagen in wound tissue; 1% topical", "value": 29.4, "unit": "%"},
      {"measurement": "Collagen Fractions (%) Insoluble", "setting": "collagen in wound tissue; 1% topical", "value": 40.5, "unit": "%"},
      {"measurement": "Collagen Fractions (%) Salt-soluble", "setting": "collagen in wound tissue; 1% topical", "value": 30.1, "unit": "%"},
      {"measurement": "IC50", "setting": "MMP-8", "value": "4.5 ± 0.5", "unit": "µM"},
      {"measurement": "IL-1β production by peritoneal macrophages", "setting": "IL-1β", "value": "decreased excessive inflammatory cytokine"},
      {"measurement": "IL-6 production by peritoneal macrophages", "setting": "IL-6", "value": "decreased excessive inflammatory cytokine"}
    ]}
  ]
}
